Reference: US8758816B2, “Compositions comprising azelastine and methods of use thereof” (priority 2004, dated 2014)
Where a name gives a salt, the structure may show the parent alone.

Test system: patients with seasonal allergic rhinitis (SAR)
Assay: MP 428 study: individual symptom severity scores (runny nose, itchy nose, sneezing, congestion; 0-3 scale)
Assay type: in vivo, human
Settings: Intent-to-Treat Population
Protocol: A two-week, randomized, double-blind study, which evaluated the effects of the co-administration of ASTELIN® (azelastine hydrochloride (HCl)) and FLONASE® (fluticasone propionate) compared to either product alone in patients with seasonal allergic rhinitis (SAR) was conducted during the 2006 Texas mountain cedar season. After a 5-day placebo lead-in period, 151 patients with moderate-to-severe allergic rhinitis symptoms were randomized to either: (1) (49 total patients) ASTELIN® (azelastine hydrochloride (HCl)) plus placebo saline nasal spray 2 sprays per nostril, 15 minutes apart, twice daily (AM & PM); (2) (50 total patients) FLONASE® (fluticasone propionate) plus placebo saline nasal spray, 2 sprays per nostril, 15 minutes apart, once daily (AM) and two sessions of placebo saline nasal spray, 2 sprays per nostril, 15 minutes apart (PM); or (3) (52 total patients) the co-administration of ASTELIN® (azelastine hydrochloride (HCl)) 2 sprays per nostril plus FLONASE® (fluticasone propionate) 2 sprays per nostril (AM), 15 minutes apart, and ASTELIN® (azelastine hydrochloride (HCl)) 2 sprays per nostril plus placebo saline nasal spray, 15 minutes apart, (PM) for a 2-week double-blind treatment period.
The primary efficacy variable was the change from baseline in the Total Nasal Symptom Score (TNSS), which comprised sneezing, itchy nose, runny nose, and nasal congestion (individual symptoms scores were assigned a value between 0 and 3, where 0=no symptoms and 3=severe symptoms). This study was not statistically designed to assess the differences between ASTELIN® and FLONASE®.
The results of the clinical trial are summarized and presented in Appendix A hereinbelow and in FIGS. 1-6. […] FIGS. 2-5 show the mean improvement in severity score (0-3 scale) from baseline for the symptoms of runny nose, itchy nose, sneezing and congestion, respectively.

SMILES: CN1CCCC(n2nc(Cc3ccc(Cl)cc3)c3ccccc3c2=O)CC1 (racemic) [Azelastine, (±)-1-(2H)-phthalazinone, 4-[(4-chlorophenyl)methyl]-2-(hexahydro-1-methyl-1H-azepin-4-yl)-, mono-hydrochloride]
- Percent Change from Baseline in AM and PM Combined Nasal Symptom Score: Congestion, LS Mean (Day 5): −18.24%
- Percent Change from Baseline in AM and PM Combined Nasal Symptom Score: Congestion, Mean (Day 5): −18.92%
- Percent Change from Baseline in AM and PM Combined Nasal Symptom Score: Congestion, Median (Day 5): −16.67%
- Percent Change from Baseline in AM and PM Combined Nasal Symptom Score: Itchy Nose, LS Mean (Day 5): −24.75%
- Percent Change from Baseline in AM and PM Combined Nasal Symptom Score: Itchy Nose, Mean (Day 5): −24.24%
- Percent Change from Baseline in AM and PM Combined Nasal Symptom Score: Itchy Nose, Median (Day 5): −15.49%
- Percent Change from Baseline in AM and PM Combined Nasal Symptom Score: Runny Nose, LS Mean (Day 5): −18.46%
- Percent Change from Baseline in AM and PM Combined Nasal Symptom Score: Runny Nose, Mean (Day 5): −18.42%
- Percent Change from Baseline in AM and PM Combined Nasal Symptom Score: Runny Nose, Median (Day 5): −11.76%
- Percent Change from Baseline in AM and PM Combined Nasal Symptom Score: Sneezing, LS Mean (Day 5): −33.21%
- Percent Change from Baseline in AM and PM Combined Nasal Symptom Score: Sneezing, Mean (Day 5): −32.23%
- Percent Change from Baseline in AM and PM Combined Nasal Symptom Score: Sneezing, Median (Day 5): −25.23%
- Change from Baseline in AM and PM Combined Nasal Symptom Score: Congestion, LS Mean (Day 6): −1.04
- Change from Baseline in AM and PM Combined Nasal Symptom Score: Congestion, Mean (Day 6): −1.09
- Change from Baseline in AM and PM Combined Nasal Symptom Score: Congestion, Median (Day 6): −0.92
- Change from Baseline in AM and PM Combined Nasal Symptom Score: Itchy Nose, LS Mean (Day 6): −1.14
- Change from Baseline in AM and PM Combined Nasal Symptom Score: Itchy Nose, Mean (Day 6): −1.14
- Change from Baseline in AM and PM Combined Nasal Symptom Score: Itchy Nose, Median (Day 6): −0.73
- Change from Baseline in AM and PM Combined Nasal Symptom Score: Runny Nose, LS Mean (Day 6): −0.94
- Change from Baseline in AM and PM Combined Nasal Symptom Score: Runny Nose, Mean (Day 6): −0.95
- Change from Baseline in AM and PM Combined Nasal Symptom Score: Runny Nose, Median (Day 6): −1.00
- Change from Baseline in AM and PM Combined Nasal Symptom Score: Sneezing, LS Mean (Day 6): −1.27
- Change from Baseline in AM and PM Combined Nasal Symptom Score: Sneezing, Mean (Day 6): −1.26
- Change from Baseline in AM and PM Combined Nasal Symptom Score: Sneezing, Median (Day 6): −1.30
- Percent Change from Baseline in AM and PM Combined Nasal Symptom Score: Congestion, LS Mean (Day 6): −18.26%
- Percent Change from Baseline in AM and PM Combined Nasal Symptom Score: Congestion, Mean (Day 6): −18.97%
- Percent Change from Baseline in AM and PM Combined Nasal Symptom Score: Congestion, Median (Day 6): −18.37%
- Percent Change from Baseline in AM and PM Combined Nasal Symptom Score: Itchy Nose, LS Mean (Day 6): −24.98%
- Percent Change from Baseline in AM and PM Combined Nasal Symptom Score: Itchy Nose, Mean (Day 6): −25.00%
- Percent Change from Baseline in AM and PM Combined Nasal Symptom Score: Itchy Nose, Median (Day 6): −15.49%
- Percent Change from Baseline in AM and PM Combined Nasal Symptom Score: Runny Nose, LS Mean (Day 6): −18.89%
- Percent Change from Baseline in AM and PM Combined Nasal Symptom Score: Runny Nose, Mean (Day 6): −18.89%
- Percent Change from Baseline in AM and PM Combined Nasal Symptom Score: Runny Nose, Median (Day 6): −21.74%
- Percent Change from Baseline in AM and PM Combined Nasal Symptom Score: Sneezing, LS Mean (Day 6): −32.36%
- Percent Change from Baseline in AM and PM Combined Nasal Symptom Score: Sneezing, Mean (Day 6): −31.52%
- Percent Change from Baseline in AM and PM Combined Nasal Symptom Score: Sneezing, Median (Day 6): −28.00%
- Change from Baseline in AM and PM Combined Nasal Symptom Score: Congestion, LS Mean (Day 7): −1.17
- Change from Baseline in AM and PM Combined Nasal Symptom Score: Congestion, Mean (Day 7): −1.23
- Change from Baseline in AM and PM Combined Nasal Symptom Score: Congestion, Median (Day 7): −1.00
- Change from Baseline in AM and PM Combined Nasal Symptom Score: Itchy Nose, LS Mean (Day 7): −1.18
- Change from Baseline in AM and PM Combined Nasal Symptom Score: Itchy Nose, Mean (Day 7): −1.17
- Change from Baseline in AM and PM Combined Nasal Symptom Score: Itchy Nose, Median (Day 7): −0.90
- Change from Baseline in AM and PM Combined Nasal Symptom Score: Runny Nose, LS Mean (Day 7): −0.93
- Change from Baseline in AM and PM Combined Nasal Symptom Score: Runny Nose, Mean (Day 7): −0.95
- Change from Baseline in AM and PM Combined Nasal Symptom Score: Runny Nose, Median (Day 7): −1.07
- Change from Baseline in AM and PM Combined Nasal Symptom Score: Sneezing, LS Mean (Day 7): −1.76
- Change from Baseline in AM and PM Combined Nasal Symptom Score: Sneezing, Mean (Day 7): −1.75
- Change from Baseline in AM and PM Combined Nasal Symptom Score: Sneezing, Median (Day 7): −1.55
- Percent Change from Baseline in AM and PM Combined Nasal Symptom Score: Congestion, LS Mean (Day 7): −21.14%
- Percent Change from Baseline in AM and PM Combined Nasal Symptom Score: Congestion, Mean (Day 7): −22.02%
- Percent Change from Baseline in AM and PM Combined Nasal Symptom Score: Congestion, Median (Day 7): −18.37%
- Percent Change from Baseline in AM and PM Combined Nasal Symptom Score: Itchy Nose, LS Mean (Day 7): −26.35%
- Percent Change from Baseline in AM and PM Combined Nasal Symptom Score: Itchy Nose, Mean (Day 7): −25.83%
- Percent Change from Baseline in AM and PM Combined Nasal Symptom Score: Itchy Nose, Median (Day 7): −21.57%
- Percent Change from Baseline in AM and PM Combined Nasal Symptom Score: Runny Nose, LS Mean (Day 7): −18.66%
- Percent Change from Baseline in AM and PM Combined Nasal Symptom Score: Runny Nose, Mean (Day 7): −18.92%
- Percent Change from Baseline in AM and PM Combined Nasal Symptom Score: Runny Nose, Median (Day 7): −25.00%
- Percent Change from Baseline in AM and PM Combined Nasal Symptom Score: Sneezing, LS Mean (Day 7): −40.66%
- Percent Change from Baseline in AM and PM Combined Nasal Symptom Score: Sneezing, Mean (Day 7): −39.73%
- Percent Change from Baseline in AM and PM Combined Nasal Symptom Score: Sneezing, Median (Day 7): −38.78%
- Change from Baseline in AM and PM Combined Nasal Symptom Score: Congestion, LS Mean (Day 8): −1.24
- Change from Baseline in AM and PM Combined Nasal Symptom Score: Congestion, Mean (Day 8): −1.27
- Change from Baseline in AM and PM Combined Nasal Symptom Score: Congestion, Median (Day 8): −1.00
- Change from Baseline in AM and PM Combined Nasal Symptom Score: Itchy Nose, LS Mean (Day 8): −1.15
- Change from Baseline in AM and PM Combined Nasal Symptom Score: Itchy Nose, Mean (Day 8): −1.12
- Change from Baseline in AM and PM Combined Nasal Symptom Score: Itchy Nose, Median (Day 8): −0.83
- Change from Baseline in AM and PM Combined Nasal Symptom Score: Runny Nose, LS Mean (Day 8): −1.23
- Change from Baseline in AM and PM Combined Nasal Symptom Score: Runny Nose, Mean (Day 8): −1.25
- Change from Baseline in AM and PM Combined Nasal Symptom Score: Runny Nose, Median (Day 8): −1.00
- Change from Baseline in AM and PM Combined Nasal Symptom Score: Sneezing, LS Mean (Day 8): −1.74
- Change from Baseline in AM and PM Combined Nasal Symptom Score: Sneezing, Mean (Day 8): −1.73
- Change from Baseline in AM and PM Combined Nasal Symptom Score: Sneezing, Median (Day 8): −1.55
- Percent Change from Baseline in AM and PM Combined Nasal Symptom Score: Congestion, LS Mean (Day 8): −22.22%
- Percent Change from Baseline in AM and PM Combined Nasal Symptom Score: Congestion, Mean (Day 8): −22.68%
- Percent Change from Baseline in AM and PM Combined Nasal Symptom Score: Congestion, Median (Day 8): −18.64%
- Percent Change from Baseline in AM and PM Combined Nasal Symptom Score: Itchy Nose, LS Mean (Day 8): −25.37%
- Percent Change from Baseline in AM and PM Combined Nasal Symptom Score: Itchy Nose, Mean (Day 8): −24.80%
- Percent Change from Baseline in AM and PM Combined Nasal Symptom Score: Itchy Nose, Median (Day 8): −18.92%
- Percent Change from Baseline in AM and PM Combined Nasal Symptom Score: Runny Nose, LS Mean (Day 8): −24.85%
- Percent Change from Baseline in AM and PM Combined Nasal Symptom Score: Runny Nose, Mean (Day 8): −24.97%
- Percent Change from Baseline in AM and PM Combined Nasal Symptom Score: Runny Nose, Median (Day 8): −25.00%
- Percent Change from Baseline in AM and PM Combined Nasal Symptom Score: Sneezing, LS Mean (Day 8): −38.54%
- Percent Change from Baseline in AM and PM Combined Nasal Symptom Score: Sneezing, Mean (Day 8): −37.78%
- Percent Change from Baseline in AM and PM Combined Nasal Symptom Score: Sneezing, Median (Day 8): −33.33%
